Data: PMC11428593 (Antibiotics, 2024)
Entries after “also recorded” stand apart in the source; their conditions may differ.

Assays:
[1] = test system: S. aureus strain USA300LAC established biofilm; test: Biofilm eradication assay (crystal violet); type: cell-based, Staphylococcus aureus; settings: at or below 4× MIC, 24 h, in words
Experimental: The establishment of a bacterial biofilm usually begins with pathogen attachment to biotic and abiotic surfaces, and S. aureus is notorious for its ability to form biofilms on surfaces, such as implants and catheters, which presents a unique treatment challenge.
Overnight cultures of S. aureus strain USA300LAC were diluted into fresh TSB to an OD600nm = 0.001 and incubated aerobically at 37 °C until the mid-log phase. (A) To detect effects on biofilm formation, cultures were diluted to an OD600nm = 0.0001 in the presence and absence of JC-01-074 and vancomycin at concentrations of 0.5–4× MIC, respectively. (B) To detect effects on biofilm eradication, cultures were diluted to an OD600nm = 0.0001 and incubated under static conditions for 24 h, after which planktonic cells were removed, and the preformed biofilms were washed twice with PBS. […] Biofilm mass was quantified after 20 h via crystal violet staining. One-way ANOVA, Dunnett’s multiple-comparison test (* p < 0.05, ** p < 0.01); (n = 3, ±S.D.).
The overnight USA300LAC cultures were diluted 1000-fold into the TSB media and incubated under shaking conditions at 37 °C until the mid-log phase. […] After 24 h of incubation, biofilm eradication was assessed via CV staining at 595 nm in a Tecan 200 Infinite Pro microplate reader (Tecan, Morgan Hill, CA, USA).

[2] = test system: S. aureus strain USA300LAC; test: Fluorescence microscopy (DAPI/Nile Red) of membrane deformation; type: cell-based, Staphylococcus aureus
Description: Given the high lipophilic nature and membrane-compromising effects of JC-01-074, we wondered about the possibility that the alkyl chain of JC-01-074 could be incorporated into the phospholipid bilayer, thereby destabilizing the uniform packing of the membrane phospholipids and potentially resulting in “bleb formation”, as this had been reported before. To test this idea, we cultivated the S. aureus strain USA300LAC to the mid-log phase and treated the cells with the indicated concentrations of JC-01-074 and daptomycin (as a positive control), respectively. Samples were collected at 15 and 60 mins of treatment, washed twice, and resuspended in fresh PBS. Cells were then stained with 4′,6-diamidino-2-phenylindole (DAPI) and Nile Red for 10 min, respectively. DAPI is a nucleic acid stain that binds to DNA, while Nile Red is commonly used as an inner membrane stain to quantify lipids. The cells were then mounted onto a glass slide with 1% agarose and imaged at 63× magnification via inverted confocal laser scanning microscopy. […] To rule out the possibility that these blebs were transiently formed, we further imaged the cells exposed to JC-01-074 for 60 min. […] The smaller blebs formed may have extended over the incubation time, resulting in their fusion into large blebs.
Figure 5 JC-01-074 treatment rapidly induces deformations in the S. aureus plasma membrane as indicated by the white arrows. […] Cells were collected at the indicated time points and stained with DAPI (5 µg/mL) and Nile Red (5 µg/mL) for 10 min, following which cells were imaged on 1% agarose pads. Images are representatives of three biological replicates. Scale bar = 1.25 µm.
The overnight USA300LAC cultures were diluted into the TSB media to an O.D.600nm = 0.01 and incubated under shaking conditions at 37 °C until the mid-log phase (O.D.600nm = 0.3) was reached. […] The cells were then imaged on 1% agarose gel pads and via fluorescence microscopy using a Leica SP8 confocal microscope. […] Fluorescence was detected between the wavelengths of 500–560 nm, with an 8×- line averaging.

CCCCCCCCCC#Cc1cccc(O)n1 [JC-01-074]
eradication of established biofilms [1]: has no effect once biofilms have been established; also recorded: no significant effects on the already established biofilms | membrane morphology after 60 min ([2]; 0.5× and 1× MIC, 60 min, USA300LAC): formation of aberrant membrane blebs | lowest concentration at which bleb formation was observed ([2]; USA300LAC plasma membrane, 0.5× MIC): 8 µg/mL | earliest time at which bleb formation was observed ([2]; USA300LAC, after addition of compound): 15 min
